Measurements: ChEMBL document CHEMBL4602687, “Dual Binding to Orthosteric and Allosteric Sites Enhances the Anticancer Activity of a TRAP1-Targeting Drug” (J Med Chem, 2020)

How the values were obtained:
Heat shock protein HSP90 [1] = molecular target: T1, Heat shock protein HSP90 (Homo sapiens, UniProt P07900+P08238); experiment: Inhibition of HSP90 in human PC3 cells assessed as change in AKT expression at 5 uM measured after 2 to 12 hrs by Western blot analysis; assay type: cell-based; details: pc-3, 5 µM
Heat shock protein HSP90 [2] = molecular target: T1, Heat shock protein HSP90; experiment: Inhibition of HSP90 in human PC3 cells assessed as change in Chk1 expression at 5 uM measured after 2 to 12 hrs by Western blot analysis; assay type: cell-based; details: pc-3, 5 µM
Heat shock protein HSP90 [3] = molecular target: T1, Heat shock protein HSP90; experiment: Inhibition of HSP90 in human PC3 cells assessed as change in Hsp70 expression at 5 uM measured after 2 to 12 hrs by Western blot analysis; assay type: cell-based; details: pc-3, 5 µM
[4] = molecular target: T2, Heat shock protein 75 kDa, mitochondrial (Homo sapiens, UniProt Q12931); experiment: Inhibition of PU-H71-FITC binding to recombinant wild-type human TRAP1 expressed in Escherichia coli BL21 (DE3) measured after 2 hrs by fluorescence polarization assay
T2 sequence (Q12931 whole entry): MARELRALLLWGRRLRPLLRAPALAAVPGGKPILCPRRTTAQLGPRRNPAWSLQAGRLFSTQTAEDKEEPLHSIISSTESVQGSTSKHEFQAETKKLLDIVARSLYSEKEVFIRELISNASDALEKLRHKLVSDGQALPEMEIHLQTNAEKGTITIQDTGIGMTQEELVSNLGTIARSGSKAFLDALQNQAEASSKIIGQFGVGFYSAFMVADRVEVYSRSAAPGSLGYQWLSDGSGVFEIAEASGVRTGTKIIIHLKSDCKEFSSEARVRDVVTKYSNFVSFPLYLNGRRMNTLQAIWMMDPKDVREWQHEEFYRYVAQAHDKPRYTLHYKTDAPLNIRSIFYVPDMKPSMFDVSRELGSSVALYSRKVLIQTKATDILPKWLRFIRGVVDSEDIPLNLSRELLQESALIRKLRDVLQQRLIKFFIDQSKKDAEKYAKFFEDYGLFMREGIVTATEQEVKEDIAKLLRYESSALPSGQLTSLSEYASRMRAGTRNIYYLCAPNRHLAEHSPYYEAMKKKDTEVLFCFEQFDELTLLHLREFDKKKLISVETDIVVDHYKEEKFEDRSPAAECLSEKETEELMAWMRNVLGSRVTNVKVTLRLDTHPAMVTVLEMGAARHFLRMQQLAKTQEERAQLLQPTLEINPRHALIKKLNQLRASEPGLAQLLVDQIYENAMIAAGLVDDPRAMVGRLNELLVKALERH

Heat shock protein HSP90 [5] = molecular target: T1, Heat shock protein HSP90; experiment: Inhibition of HSP90 in human PC3 cells assessed as change in Cdk4 expression at 5 uM measured after 2 to 12 hrs by Western blot analysis; assay type: cell-based; details: pc-3, 5 µM
Heat shock protein HSP90 [6] = molecular target: T1, Heat shock protein HSP90; experiment: Inhibition of HSP90 in human PC3 cells at 5 uM measured after 2 to 12 hrs by Western blot analysis; assay type: cell-based; details: pc-3, 5 µM
Hepatocyte = experiment: Cytotoxicity against mouse hepatocytes assessed as reduction in cell viability up to 3 uM measured after 24 hrs by MTT assay; assay type: cell-based

inhibition (INH) (Heat shock protein HSP90 [1])	inhibition (INH) (Heat shock protein HSP90 [2])	inhibition (INH) (Heat shock protein HSP90 [3])	IC50 [4] [nM]	inhibition (INH) (Heat shock protein HSP90 [5])	inhibition (INH) (Heat shock protein HSP90 [6])	SMILES	Activity (Hepatocyte)
Not Active	Not Active	Not Active	1880	Not Active	Not Active	Nc1ncnc2c1nc(Sc1cc3c(cc1I)OCO3)n2CCCCCCCCCC[P+](c1ccccc1)(c1ccccc1)c1ccccc1.[Br-]	Non-Toxic
–	–	–	794	–	–	Nc1ncnc2c1nc(Sc1cc3c(cc1I)OCO3)n2CCCCCC[P+](c1ccccc1)(c1ccccc1)c1ccccc1	–
–	–	–	872	–	–	Nc1ncnc2c1nc(Sc1cc3c(cc1I)OCO3)n2CCCCCCCC[P+](c1ccccc1)(c1ccccc1)c1ccccc1	–
